What was measured:
Format in all cases: in vivo
[1] = test system: barnyardgrass (Echinochloa crus-galli, ECHCG); assay: Greenhouse herbicide screen, post-emerge application, phytotoxicity rating; details: POST emergent, 14 days after application, scale 0-100
Description: (§1) A standard greenhouse herbicide activity screening system was used to evaluate the herbicidal efficacy and crop safety of these test compounds. Seven broadleaf weed species including redroot pigweed (Amaranthus retrofiexus, AMARE), velvetleaf (Abutilon theophrasti, ABUTH), sicklepod (Cassia obtusifolia, CASOB), ivyleaf morningglory (Ipomoea hederacea, IPOHE), lambsquarters (Chenopodium album, CHEAL), common ragweed (Ambrosia artemisiifolia L., AMBEL), and cocklebur (Xanthium strumarium, XANST) were used as test species. Four grass weed species including green foxtail (Setaria viridis, SETVI), barnyardgrass (Echinochloa crus-galli, ECHCG), johnsongrass (Sorghum halepense, SORHA), and large crabgrass (Digitaria sanguinalis, DIGSA) were also used. In addition, four crop species, field corn (Zea mays L., var. Dekalb 535, CORN), soybean (Glycine max L., var. Pella 86, SOY), upland rice (Oryza sp., var.Cocodrie, RICE) and wheat (Triticum aestivum L.) were included.
(§2) All plants were grown in 10 cm square plastic pots which were filled with a sandy loam soil mix. For pre-emerge tests, seeds were planted one day prior to application of the test compounds. For post-emerge tests, seeds were planted 8-21 days prior to the test to allow emergence and good foliage development prior to application of the test substances. At the time of the post-emerge application, plants of all species were usually at the 2-3 leaf stage of development.
(§3) All test compounds were dissolved in acetone and applied to the test units in a volume of 187 l/ha. Test materials were applied at rates ranging from 15 g ai/ha to 1000 g ai/ha using a track sprayer equipped with a TJ8001E even flow flat fan spray nozzle. Plants were arranged on a shelf so that the top of the canopy (post-emerge) or top of the soil surface (pre-emerge) was 40-45 cm below the nozzle. Pressurized air was used to force the test solution through the nozzle as it was mechanically advanced (via electrically driven chain drive) over the top of all test plants/pots. This application simulates a typical commercial field herbicide application.
(§4) Pre-emergence tests were top watered immediately after treatment to incorporate the test materials, then routinely top-watered for normal growth. Post-emerge test units were always bottom-watered.
(§5) At 14 days after application of the test materials, phytotoxicity ratings were recorded. A rating scale of 0-100 was used as previously described in Research Methods in Weed Science, 2nd edition, B. Truelove, Ed., Southern Weed Science Society, Auburn University, Auburn, Ala., 1977. Briefly, “0” corresponds to no damage and “100” corresponds to complete death of all plants in the test unit. This scale was used both to determine efficacy against weed species and damage to crop species. Herbicide activity data for various compounds of this invention, which are shown by compound No. in Tables 1-12, are shown in Tables 13 and 14.

[2] = test system: cocklebur (Xanthium strumarium, XANST); assay: as above; details: POST emergent, 14 days after application, scale 0-100
Description: as §1, §2, §3, §4, §5

[3] = test system: common ragweed (Ambrosia artemisiifolia L., AMBEL); assay: as above; details: POST emergent, 14 days after application, scale 0-100
Description: as §1, §2, §3, §4, §5

[4] = test system: green foxtail (Setaria viridis, SETVI); assay: as above; details: POST emergent, 14 days after application, scale 0-100
Description: as §1, §2, §3, §4, §5

[5] = test system: ivyleaf morningglory (Ipomoea hederacea, IPOHE); assay: as above; details: POST emergent, 14 days after application, scale 0-100
Description: as §1, §2, §3, §4, §5

[6] = test system: johnsongrass (Sorghum halepense, SORHA); assay: as above; details: POST emergent, 14 days after application, scale 0-100
Description: as §1, §2, §3, §4, §5

[7] = test system: lambsquarters (Chenopodium album, CHEAL); assay: as above; details: POST emergent, 14 days after application, scale 0-100
Description: as §1, §2, §3, §4, §5

[8] = test system: large crabgrass (Digitaria sanguinalis, DIGSA); assay: as above; details: POST emergent, 14 days after application, scale 0-100
Description: as §1, §2, §3, §4, §5

[9] = test system: redroot pigweed (Amaranthus retrofiexus, AMARE); assay: as above; details: POST emergent, 14 days after application
Description: as §1, §2, §3, §4, §5

[10] = test system: sicklepod (Cassia obtusifolia, CASOB); assay: as above; details: POST emergent, 14 days after application, scale 0-100
Description: as §1, §2, §3, §4, §5

[11] = test system: velvetleaf (Abutilon theophrasti, ABUTH); assay: as above; details: POST emergent, 14 days after application, scale 0-100
Description: as §1, §2, §3, §4, §5

[12] = test system: field corn (Zea mays L., var. Dekalb 535, CORN); assay: Greenhouse herbicide screen, post-emerge application, crop damage rating; details: POST emergent, 14 days after application, scale 0-100
Description: as §1, §2, §3, §4, §5

[13] = test system: upland rice (Oryza sp., var.Cocodrie, RICE); assay: as above; details: POST emergent, 14 days after application, scale 0-100
Description: as §1, §2, §3, §4, §5

[14] = test system: barnyardgrass (Echinochloa crus-galli, ECHCG); assay: Greenhouse herbicide screen, pre-emerge application, phytotoxicity rating; details: PRE emergent, 14 days after application, rating scale 0-100
Description: as §1, §2, §3, §4, §5

[15] = test system: cocklebur (Xanthium strumarium, XANST); assay: as above; details: PRE emergent, 14 days after application, rating scale 0-100
Description: as §1, §2, §3, §4, §5

[16] = test system: common ragweed (Ambrosia artemisiifolia L., AMBEL); assay: as above; details: PRE emergent, 14 days after application, rating scale 0-100
Description: as §1, §2, §3, §4, §5

[17] = test system: green foxtail (Setaria viridis, SETVI); assay: as above; details: PRE emergent, 14 days after application, rating scale 0-100
Description: as §1, §2, §3, §4, §5

[18] = test system: ivyleaf morningglory (Ipomoea hederacea, IPOHE); assay: as above; details: PRE emergent, 14 days after application, rating scale 0-100
Description: as §1, §2, §3, §4, §5

[19] = test system: johnsongrass (Sorghum halepense, SORHA); assay: as above; details: PRE emergent, 14 days after application, rating scale 0-100
Description: as §1, §2, §3, §4, §5

[20] = test system: lambsquarters (Chenopodium album, CHEAL); assay: as above; details: PRE emergent, 14 days after application, rating scale 0-100
Description: as §1, §2, §3, §4, §5

[21] = test system: large crabgrass (Digitaria sanguinalis, DIGSA); assay: as above; details: PRE emergent, 14 days after application, rating scale 0-100
Description: as §1, §2, §3, §4, §5

[22] = test system: redroot pigweed (Amaranthus retrofiexus, AMARE); assay: as above; details: PRE emergent, 14 days after application, rating scale 0-100
Description: as §1, §2, §3, §4, §5

[23] = test system: sicklepod (Cassia obtusifolia, CASOB); assay: as above; details: PRE emergent, 14 days after application, rating scale 0-100
Description: as §1, §2, §3, §4, §5

[24] = test system: velvetleaf (Abutilon theophrasti, ABUTH); assay: as above; details: PRE emergent, 14 days after application, rating scale 0-100
Description: as §1, §2, §3, §4, §5

[25] = test system: field corn (Zea mays L., var. Dekalb 535, CORN); assay: Greenhouse herbicide screen, pre-emerge application, crop damage rating; details: PRE emergent, 14 days after application, rating scale 0-100
Description: as §1, §2, §3, §4, §5

[26] = test system: upland rice (Oryza sp., var.Cocodrie, RICE); assay: as above; details: PRE emergent, 14 days after application, rating scale 0-100
Description: as §1, §2, §3, §4, §5

CN(NC(=O)c1cc(-n2c(=O)cc(C(F)(F)F)n(C)c2=O)c(F)cc1Cl)c1ccccc1 [Compound 1-9]
30: phytotoxicity rating CASOB ([23]; 63 g ai/ha)
80: phytotoxicity rating CASOB ([10]; 63 g ai/ha) | phytotoxicity rating SETVI ([17]; 250 g ai/ha)
99: phytotoxicity rating AMBEL ([3]; 63 g ai/ha) | phytotoxicity rating SORHA ([6]; 250 g ai/ha) | phytotoxicity rating AMBEL ([16]; 250 g ai/ha) | phytotoxicity rating SORHA ([19]; 250 g ai/ha) | phytotoxicity rating CHEAL ([20]; 63 g ai/ha)
100: phytotoxicity rating ECHCO ([1]; 250 g ai/ha) | phytotoxicity rating XANST ([2]; 63 g ai/ha) | phytotoxicity rating XANST ([2]; 250 g ai/ha) | phytotoxicity rating AMBEL ([3]; 250 g ai/ha) | phytotoxicity rating IPOHE ([5]; 63 g ai/ha) | phytotoxicity rating IPOHE ([5]; 250 g ai/ha) | phytotoxicity rating CHEAL ([7]; 63 g ai/ha) | phytotoxicity rating CHEAL ([7]; 250 g ai/ha) | phytotoxicity rating AMARE ([9]; 63 g ai/ha, scale 0-100 (0 no damage, 100 complete death)) | phytotoxicity rating AMARE ([9]; 250 g ai/ha, scale 0-100) | phytotoxicity rating ABUTH ([11]; 63 g ai/ha) | phytotoxicity rating ABUTH ([11]; 250 g ai/ha) | crop damage rating CORN ([12]; 250 g ai/ha) | phytotoxicity rating IPOHE ([18]; 250 g ai/ha) | phytotoxicity rating CHEAL ([20]; 250 g ai/ha) | phytotoxicity rating AMARE ([22]; 63 g ai/ha) | phytotoxicity rating AMARE ([22]; 250 g ai/ha) | phytotoxicity rating ABUTH ([24]; 250 g ai/ha)
95: phytotoxicity rating SETVI ([4]; 250 g ai/ha) | phytotoxicity rating DIGSA ([8]; 250 g ai/ha) | phytotoxicity rating CASOB ([10]; 250 g ai/ha) | phytotoxicity rating ABUTH ([24]; 63 g ai/ha)
10: crop damage rating CORN ([25]; 63 g ai/ha)
50: crop damage rating RICE ([13]; 250 g ai/ha) | phytotoxicity rating AMBEL ([16]; 63 g ai/ha) | phytotoxicity rating DIGSA ([21]; 63 g ai/ha)
90: phytotoxicity rating CASOB ([23]; 250 g ai/ha)
20: phytotoxicity rating XANST ([15]; 63 g ai/ha)
98: phytotoxicity rating ECHCO ([1]; 63 g ai/ha)
60: phytotoxicity rating SETVI ([4]; 63 g ai/ha) | phytotoxicity rating IPOHE ([18]; 63 g ai/ha) | phytotoxicity rating SORHA ([19]; 63 g ai/ha)
45: crop damage rating RICE ([13]; 63 g ai/ha) | crop damage rating RICE ([26]; 250 g ai/ha)
40: phytotoxicity rating ECHCG ([14]; 63 g ai/ha) | phytotoxicity rating SETVI ([17]; 63 g ai/ha)
75: phytotoxicity rating SORHA ([6]; 63 g ai/ha) | crop damage rating CORN ([12]; 63 g ai/ha) | crop damage rating CORN ([25]; 250 g ai/ha)
0: crop damage rating RICE ([26]; 63 g ai/ha)
70: phytotoxicity rating DIGSA ([8]; 63 g ai/ha) | phytotoxicity rating ECHCG ([14]; 250 g ai/ha) | phytotoxicity rating XANST ([15]; 250 g ai/ha) | phytotoxicity rating DIGSA ([21]; 250 g ai/ha)
